This is an account of results in paper PMC3857149, “Identification of Three Antiviral Inhibitors against Japanese Encephalitis Virus from Library of Pharmacologically Active Compounds 1280” (PLoS ONE, 2013).

A value given as a limit tells only on which side of the number the result lay.

In series [1] the test system is JEV (P3 strain). The experiment in a line: CPE-based EC50 assay, JEV-infected BHK-21 cells. The conditions noted are these: for EC50: Japanese encephalitis virus, BHK-21, 120 h; for selectivity index: from CC50 and EC50 in BHK-21 cells. The format is cell-based, Japanese encephalitis virus. As to the method: (§1) Cell viability was evaluated by Celltiter-Glo Luminescent Cell Viability Assay reagent (Promega, Madison, WI, USA) following the manufacturer's protocol. An equal volume of Celltiter-Glo reagents was added to the cells in 96-well white plates (Corning, Tewksbury, MA, USA) and mixed for 2 min on an orbital shaker and incubated for a further 10 min at room temperature. The luminescence of each well was measured by a 1450 MicroBeta TriLux (Perkin Elmer, Waltham, MA, USA). Percentage of cell viability was calculated as follows: Percentage of cell viability = 100× (luminescence of experimental group/luminescence of control group).
BHK-21 cells were seeded onto 96-well plates at 10,000 cells per well. After 12 h incubation, the culture supernatant was replaced with maintenance medium. One microliter of each compound was added to 99 µL maintenance medium in the first well, followed by twofold serial dilutions for two wells. After full mixing in the third well, 50 µL medium was discarded. Then, 50 µL maintenance medium containing 0.02 MOI JEV was added to each well. The plates were subjected to 30 s horizontal shaking to achieve thorough mixing. Three wells of mock-infected cells as well as three wells of JEV-infected cells containing 1% DMSO were set on each plate as controls. After 120 h incubation, the percentage of CPE inhibition was calculated as previously described: Percentage of inhibition = (luminescence of experimental group – average luminescence of virus control) / (average luminescence of cell control – average luminescence of virus control) ×100.
BHK-21 cells were seeded in 96-well white plates at 10,000 cells per well. Twelve hours later, the growth medium was replaced with maintenance medium containing 0.01 MOI JEV as well as different concentrations of compounds. Cell incubation was continued for 120 h, and the percentage of inhibition was measured as described above. The EC50 values were calculated by nonlinear regression analysis.

In series [2] the test system is JEV. The experiment in a line: Indirect immunofluorescence assay (IFA, anti-NS5) in infected BHK-21 cells. The conditions noted are these: MOI 0.01, 48 h post-infection; for JEV-negative cells: 5 µM compound; for JEV replication / JEV-positive cells (IFA): 20 µM compound. The format is cell-based, Japanese encephalitis virus. The protocol: BHK-21 cells were seeded in 12-well plates and inoculated with JEV at MOI 0.01 after 12 h incubation. The compounds were added to cells at concentrations of 5 or 20 µM. After incubation for a further 48 h, virus replication in the cells was evaluated by IFA. The cells were fixed in formaldehyde for 5 min and were incubated with anti-NS5 Mab (1∶500) and then FITC-conjugated goat anti-mouse antibody (Boster) for 30 min respectively. Finally, the cells were stained with DAPI (Sigma-Aldrich) and imaged by a fluorescence microscope (Olympus IX70; Olympus, Tokyo, Japan).

For series [3] the following is noted: cited from earlier work.
A short description of series [4]: Cytotoxicity of compounds (Celltiter-Glo cell viability). The settings on record: hamster; BHK-21 cells, 120 h incubation; read-out: CC50 (50% cytotoxicity concentration). The format is cell-based. As to the method:
as §1
BHK-21 cells were seeded in 96-well white plates at 10,000 cells per well. After 12 h incubation for cell attachment, different concentrations of compounds were added to the cells. Cell viability was tested as described above after 120 h incubation. The 50% cytotoxicity concentration (CC50) was calculated by nonlinear regression analysis.

Series [5] has as its system JEV. Put plainly: Plaque reduction assay. It counts as cell-based, Japanese encephalitis virus. The protocol:
BHK-21 cells were plated in 96-well plates at a density of 10,000 cells per well and grown for 12 h for cell attachment. The cells were infected with JEV at MOI 0.01 in the presence of different concentrations (20, 15, 10, and 5 µM) of compounds. Each concentration was assayed in triplicate. Forty-eight hours post-infection, the viruses in each group were harvested by freezing/thawing three times and mixed in a tube. Then, 50 µL virus suspension was inoculated into BHK-21 cells in 12-well plates for the plaque assay, as previously described.
On the technique in general: Plaque reduction counts the foci of infection that form in a cell layer.

The test system of series [6] is JEV. Put plainly: Western blotting of JEV envelope (E) protein expression in infected BHK-21 cells. The format is cell-based, Japanese encephalitis virus. The conditions noted are these: MOI 0.01, 48 h, normalized to GAPDH. The protocol: BHK-21 cells in 12-well plates were infected with JEV at MOI 0.01. The compounds were then added to cells at final concentrations of 10 and 20 µM. After incubation for 48 h, expression of JEV envelope (E) protein was detected by western blotting. The cells were collected after trypsin digestion and washed in PBS. The cell suspension was mixed with an equal volume of 2×SDS sample buffer. The proteins were electrophoresed in 12% SDS-PAGE and transferred to a nitrocellulose filter membrane (Millipore, Darmstadt, Germany). Western blotting was performed with JEV E protein-specific monoclonal antibody (Mab; 1∶500, constructed in our laboratory) or GAPDH-specific Mab (1∶1000; Proteintech, Chicago, IL, USA) as the primary antibodies, followed by addition of horseradish-peroxidase-conjugated goat anti-mouse IgG (Boster, Wuhan, China) as the secondary antibody. Finally, the protein blots were detected with SuperSignal West Pico Chemiluminescent Substrate (Thermo Scientific, Rockford, IL, USA) and imaged by a MF-ChemiBIS 3.2 (DNR Bio-Imaging Systems, Mahale Hahamisha, Israel). The expression of E and GAPDH was quantified by gray-value analysis using software ImageJ. The expression of E protein was normalized by the expression of GAPDH and the changes of E expression were calculated by comparing to the non-compound treated group.
In general terms: A western blot detects proteins with antibodies after separation by electrophoresis.

The conditions of series [7]: cited from earlier work. The source holds these as a separate data set.

As a reminder, the EC50 is the concentration needed to bring the measured effect to its halfway point. Higher therefore signals a less potent agent.

In series [1], `CCCCCCN(CCCCCC)C(=O)Cc1c(-c2ccc(F)cc2)[nH]c2ccccc12` [FGIN-1-27, N,N-dihexyl-2-(4-fluorophenyl)indole-3-acetamide] had an EC50 of 3.21 µM and a selectivity index of 38.79. Further, in series [2], the JEV-negative cells result is on record as “about 80%” and the “JEV replication / JEV-positive cells (IFA)” value is listed as “few cells were JEV-positive”. Besides, the “ability to enter the brain” value in series [3] is on record as “had the ability to enter the brain”. The CC50 at 120 h in series [4] worked out at 124 µM. This molecule also came in with a number of plaques in series [5] (10 µM compound, 48 h, MOI 0.01) of under 20. Besides, the virus titer in series [5] (10 µM compound, 48 h, MOI 0.01, untreated 2.7×10^6 PFU/mL) was under 400 PFU/mL.

`COCCOC(=O)C1=C(C)NC(C)=C(C(=O)OC/C=C/c2ccccc2)C1c1cccc([N+](=O)[O-])c1` (centres unmarked) [cilnidipine]: in series [1], the EC50 is 6.52 µM and the selectivity index came to 30.67. Moreover, in series [2], the JEV-negative cells was about 60% and the “JEV replication / JEV-positive cells (IFA)” value is listed as “Absolute inhibition of JEV replication”. Besides, in series [6] (10 µM compound), the “E expression decrease (gray-value analysis)” value (shortened to “E expression decrease”) is about 56%. Also, the “E expression decrease” value in series [6] (20 µM compound) was about 75%. The CC50 at 120 h in series [4] is over 200 µM. In addition, in series [5] (20 or 15 µM compound), the “replication of JEV” value is recorded as “almost completely inhibited”. In addition, in series [7], the MLD50 was over 5000 mg/kg.

In the case of `O=C(Nc1ccc([N+](=O)[O-])cc1Cl)c1cc(Cl)ccc1O` [niclosamide], in series [1], the response was half-maximal at 5.8 µM (EC50) and the selectivity index is reported as 7.49. Moreover, in series [2], the JEV-negative cells is reported as about 30% and the “JEV replication / JEV-positive cells (IFA)” value is listed as “few cells were JEV-positive”. Besides, in series [6] (10 µM compound), the “E expression decrease” value is reported as “about 85%”. In addition, the CC50 at 120 h in series [4] came to 43.3 µM.
